Test results: patent US12077503B2, “Substituted cyclic amides and their use as herbicides” (FMC CORPORATION, priority 2015, dated 2024)
Where two headings read alike, the source gives them in different places.

Columns and labels:
Type in all cases: in vivo
[1] = system: sedge, umbrella (small-flower umbrella sedge, Cyperus difformis); experiment: Test B flooded paddy test; conditions: Cyperus difformis, Flood, 250 g ai/ha; scale of 0 to 100 where 0 is no effect and 100 is complete control; read-out: Sedge, Umbrella plant response rating
How it was run: (§1)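 Rating scale 0–100 (visual, vs untreated controls) after a 13–15 d greenhouse period; application to the flood layer, 3 cm above soil and maintained; plants at 2-leaf stage when treated.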

[2] = system: ducksalad (Heteranthera limosa); experiment: Test B flooded paddy test; conditions: Heteranthera limosa, Flood, 250 g ai/ha; scale of 0 to 100 where 0 is no effect and 100 is complete control; read-out: Ducksalad plant response rating
How it was run: as §1

rice (Oryra sativa) = experiment: Test B flooded paddy test; conditions: Oryza sativa, Flood, 250 g ai/ha; scale of 0 to 100 where 0 is no effect and 100 is complete control; read-out: Rice plant response rating
How it was run: as §1

[3] = system: barnyardgrass (Echinochloa crus-galli); experiment: Test B flooded paddy test; conditions: Echinochloa crus-galli, Flood, 250 g ai/ha; scale of 0 to 100 where 0 is no effect and 100 is complete control; read-out: Barnyardgrass plant response rating
How it was run: as §1

Kochia (Kochia scoparia) = experiment: Test A postemergence; conditions: Bassia scoparia, post-emergence, 240 h; for pest or weed control at 125 g/ha: 125 g ai/ha, postemergence; for pest or weed control at 31 g/ha: Postemergence, 31 g ai/ha, visual injury after approx. 10 d, 0 to 100 scale, 0 no effect, 100 complete control
How it was run: (§2)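 Treatment is preemergence as a directed soil spray after planting, or postemergence at the one- to two-leaf stage, with test chemical in a non-phytotoxic solvent mixture plus surfactant. Plants stay in the greenhouse about 10 d before visual injury scoring on a 0 to 100 scale versus untreated controls.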

[4] = system: wheat (Triticum aestivum); experiment: Test A postemergence; conditions: Triticum aestivum, post-emergence, 240 h; for plant injury at 31 g/ha: Postemergence, 31 g ai/ha, visual injury after approx. 10 d, 0 to 100 scale, 0 no effect, 100 complete control, read-out: Plant response rating, Wheat; for plant injury at 125 g/ha: 125 g ai/ha, postemergence, visual injury rating after approximately 10 d, read-out: Wheat plant response rating (0 to 100 scale, 0 no effect, 100 complete control)
How it was run: as §2

[5] = system: ragweed (common ragweed, Ambrosia elatior); experiment: Test A postemergence; conditions: Ambrosia artemisiifolia, post-emergence, 240 h; for pest or weed control at 125 g/ha: 125 g ai/ha, postemergence; for pest or weed control at 31 g/ha: Postemergence, 31 g ai/ha, visual injury after approx. 10 d, 0 to 100 scale, 0 no effect, 100 complete control
How it was run: as §2

corn (Zea mays) = experiment: Test A postemergence; conditions: Zea mays, post-emergence, 240 h; for Corn plant response rating (crop injury, 0 = no effect, 100 = complete kill) at 31 g/ha: Postemergence, 31 g ai/ha, visual injury after approx. 10 d, 0 to 100 scale, 100 complete control; for plant injury at 125 g/ha: visual injury rating after approximately 10 d, read-out: Corn plant response rating (0 to 100 scale, 0 no effect, 100 complete control)
How it was run: as §2

[6] = system: giant foxtail (Setaria faberii); experiment: Test A postemergence; conditions: Setaria faberi, post-emergence, 240 h; for pest or weed control at 125 g/ha: 125 g ai/ha, postemergence; for pest or weed control at 31 g/ha: Postemergence, 31 g ai/ha, visual injury after approx. 10 d, 0 to 100 scale, 0 no effect, 100 complete control
How it was run: as §2

[7] = system: pigweed (Amaranthus retroflexus); experiment: Test A postemergence; conditions: Amaranthus retroflexus, post-emergence, 240 h; for pest or weed control at 125 g/ha: 125 g ai/ha, postemergence; for pest or weed control at 31 g/ha: Postemergence, 31 g ai/ha, visual injury after approx. 10 d, 0 to 100 scale, 0 no effect, 100 complete control
How it was run: as §2

[8] = system: ryegrass, Italian (Italian ryegrass, Lolium multiflorum); experiment: Test A postemergence; conditions: Lolium multiflorum, post-emergence, 240 h; for pest or weed control at 125 g/ha: 125 g ai/ha, postemergence; for pest or weed control at 31 g/ha: Postemergence, 31 g ai/ha, visual injury after approx. 10 d, 0 to 100 scale, 0 no effect, 100 complete control
How it was run: as §2

[9] = system: blackgrass (Alopecurus myosuroides); experiment: Test A postemergence; conditions: Alopecurus myosuroides, post-emergence, 240 h; for pest or weed control at 125 g/ha: 125 g ai/ha, postemergence; for pest or weed control at 31 g/ha: Postemergence, 31 g ai/ha, visual injury after approx. 10 d, 0 to 100 scale, 0 no effect, 100 complete control
How it was run: as §2

[10] = system: Galium (catchweed bedstraw, Galium aparine); experiment: Test A postemergence; conditions: Galium, post-emergence, 240 h; for pest or weed control at 125 g/ha: 125 g ai/ha, postemergence; for pest or weed control at 31 g/ha: Postemergence, 31 g ai/ha, visual injury after approx. 10 d, 0 to 100 scale, 0 no effect, 100 complete control
How it was run: as §2

[11] = system: barnyardgrass (Echinochloa crus-galli); experiment: Test A postemergence; conditions: Echinochloa crus-galli, post-emergence, 240 h; for pest or weed control at 125 g/ha: 125 g ai/ha, postemergence; for pest or weed control at 31 g/ha: Postemergence, 31 g ai/ha, visual injury after approx. 10 d, 0 to 100 scale, 0 no effect, 100 complete control
How it was run: as §2

[12] = read-out: Plant response rating, Kochia
[13] = read-out: Plant response rating, Ragweed
[14] = read-out: Plant response rating, Foxtail, Giant
[15] = read-out: Plant response rating, Pigweed
[16] = read-out: Plant response rating, Ryegrass, Italian
[17] = read-out: Plant response rating, Blackgrass
[18] = read-out: Plant response rating, Galium
[19] = read-out: Plant response rating, Barnyardgrass
[20] = visual injury rating after approximately 10 d, read-out: Kochia plant response rating (0 to 100 scale, 0 no effect, 100 complete control)
[21] = visual injury rating after approximately 10 d, read-out: Ragweed plant response rating (0 to 100 scale, 0 no effect, 100 complete control)
[22] = visual injury rating after approximately 10 d, read-out: Foxtail, Giant plant response rating (0 to 100 scale, 0 no effect, 100 complete control)
[23] = visual injury rating after approximately 10 d, read-out: Pigweed plant response rating (0 to 100 scale, 0 no effect, 100 complete control)
[24] = visual injury rating after approximately 10 d, read-out: Ryegrass, Italian plant response rating (0 to 100 scale, 0 no effect, 100 complete control)
[25] = visual injury rating after approximately 10 d, read-out: Blackgrass plant response rating (0 to 100 scale, 0 no effect, 100 complete control)
[26] = visual injury rating after approximately 10 d, read-out: Galium plant response rating (0 to 100 scale, 0 no effect, 100 complete control)
[27] = visual injury rating after approximately 10 d, read-out: Barnyardgrass plant response rating (0 to 100 scale, 0 no effect, 100 complete control)

Structure (SMILES)	pest or weed control at 250 g/ha [1]	pest or weed control at 250 g/ha [2]	pest or weed control at 250 g/ha (rice (Oryra sativa))	pest or weed control at 250 g/ha [3]	pest or weed control at 31 g/ha (Kochia (Kochia scoparia); [12])	plant injury at 31 g/ha [4]	pest or weed control at 31 g/ha [5, 13]	Corn plant response rating (crop injury, 0 = no effect, 100 = complete kill) at 31 g/ha (corn (Zea mays))	pest or weed control at 31 g/ha [6, 14]	pest or weed control at 31 g/ha [7, 15]	pest or weed control at 31 g/ha [8, 16]	pest or weed control at 31 g/ha [9, 17]	pest or weed control at 31 g/ha [10, 18]	pest or weed control at 31 g/ha [11, 19]	pest or weed control at 125 g/ha (Kochia (Kochia scoparia); [20])	plant injury at 125 g/ha [4]	pest or weed control at 125 g/ha [5, 21]	plant injury at 125 g/ha (corn (Zea mays); 125 g ai/ha, postemergence)	pest or weed control at 125 g/ha [6, 22]	pest or weed control at 125 g/ha [7, 23]	further results
Cc1cc(F)cc([C@H]2CN(C)C(=O)[C@@H]2C(=O)Nc2ccc(F)c(F)c2F)c1 [Compound 801]	40%	90%	30%	90%	20%	0%	0%	20%	70%	30%	0%	20%	30%	80%							pest or weed control at 125 g/ha (Kochia (Kochia scoparia); visual injury after approximately 10 d, 0 to 100 scale (0 no effect, 100 complete control), read-out: Plant response rating, Kochia): 40%; pest or weed control at 125 g/ha ([5]; visual injury after approximately 10 d, 0 to 100 scale (0 no effect, 100 complete control), read-out: Plant response rating, Ragweed): 50%; Corn plant response rating (crop injury, 0 = no effect, 100 = complete kill) at 125 g/ha (corn (Zea mays); 125 g ai/ha, postemergence, visual injury after approximately 10 d, 0 to 100 scale (0 no effect, 100 complete control)): 60%; pest or weed control at 125 g/ha ([6]; visual injury after approximately 10 d, 0 to 100 scale (0 no effect, 100 complete control), read-out: Plant response rating, Foxtail, Giant): 90%; pest or weed control at 125 g/ha ([7]; visual injury after approximately 10 d, 0 to 100 scale (0 no effect, 100 complete control), read-out: Plant response rating, Pigweed): 30%; pest or weed control at 125 g/ha ([8]; visual injury after approximately 10 d, 0 to 100 scale (0 no effect, 100 complete control), read-out: Plant response rating, Ryegrass, Italian): 60%; pest or weed control at 125 g/ha ([9]; visual injury after approximately 10 d, 0 to 100 scale (0 no effect, 100 complete control), read-out: Plant response rating, Blackgrass): 60%; pest or weed control at 125 g/ha ([10]; visual injury after approximately 10 d, 0 to 100 scale (0 no effect, 100 complete control), read-out: Plant response rating, Galium): 60%; pest or weed control at 125 g/ha ([11]; visual injury after approximately 10 d, 0 to 100 scale (0 no effect, 100 complete control), read-out: Plant response rating, Barnyardgrass): 90%
CN1C[C@H](c2ccc(C(F)F)cc2)[C@@H](C(=O)Nc2ccccc2F)C1=O [Compound 803]	0%	100%	55%	90%	50%	0%	30%	20%	90%	30%	0%	20%	30%	80%	70%	40%	30%	90%	90%	40%	pest or weed control at 125 g/ha [8, 24]: 40%; pest or weed control at 125 g/ha [9, 25]: 50%; pest or weed control at 125 g/ha [10, 26]: 60%; pest or weed control at 125 g/ha [11, 27]: 80%
CN1CC[C@H](c2cccc(OC(F)(F)F)c2)[C@@H](C(=O)Nc2cccc(F)c2F)C1=O [Compound 807]	0%	100%	0%	95%	0%	0%	0%	0%	70%	0%	0%	0%	0%	70%	0%	30%	0%	70%	80%	0%	pest or weed control at 125 g/ha [8, 24]: 0%; pest or weed control at 125 g/ha [9, 25]: 0%; pest or weed control at 125 g/ha [10, 26]: 0%; pest or weed control at 125 g/ha [11, 27]: 80%
CN1CC[C@H](c2cccc(OC(F)(F)F)c2)[C@@H](C(=O)Nc2cccc(Cl)c2F)C1=O [Compound 810]	0%	90%	0%	60%	0%	0%	0%	0%	60%	0%	0%	0%	0%	40%	0%	0%	0%	0%	80%	0%	pest or weed control at 125 g/ha [8, 24]: 0%; pest or weed control at 125 g/ha [9, 25]: 0%; pest or weed control at 125 g/ha [10, 26]: 0%; pest or weed control at 125 g/ha [11, 27]: 70%
